Laboratory results from patent publication US20200085789A1, “USE OF A PROTEASOME INHIBITOR FOR THE TREATMENT OF CENTRAL NERVOUS SYSTEM (CNS) CANCERS” (Celgene International II Sàrl, priority 2017, published 2020).
Like-named read-outs stand apart in the source and are kept apart here.

Key:
[1] = Adverse events and dose-limiting toxicity (NCI-CTCAE v 4.03), MRZ ± BEV in recurrent grade IV malignant glioma patients; assay type: in vivo, human; conditions: treated with MRZ 0.8 mg/m^2 + BEV (N = 27)
Text: An adverse event (AE) is any noxious, unintended, or untoward medical occurrence that may appear or worsen in a subject during the course of a study. […] Any worsening (i.e., any clinically significant adverse change in the frequency or intensity of a pre-existing condition) should be considered an AE.
The severity/intensity of AEs will be graded based upon the subject's symptoms according to the current active minor version of the Common Terminology Criteria for Adverse Events ( ).

[2] = Bevacizumab serum pharmacokinetics, peak and trough (Part 1 Phase 1); assay type: in vivo, human; conditions: for Cmax D 1: C1D1; for Cmax D 15 / Cmin D 15: C1D15
Text: The drugs were infused on 28-Day Cycles.

[3] = tested on: WHO Grade IV malignant glioma; conditions: cited from earlier work
[4] = Day 0, 10 mg/kg dose (Gordon et al., 2001); cited from earlier work
[5] = Heiland (Freiburg, Germany), All Pts
[6] = Heiland (Freiburg, Germany), Methylated
[7] = Heiland (Freiburg, Germany), Unmethylated
[8] = Wick (EORTC 26101 P2), Methylated
[9] = Wick (EORTC 26101 P2), Unmethylated

In the case of bevacizumab [reference compound], the “Dizziness related to the labelled drug(s), patients” value [1] is reported as 1, the “Dysphonia related to the labelled drug(s)” value [1] is reported as “(37.0%)” and the “Dysphonia related to the labelled drug(s), patients” value [1] is reported as 10. For the same substance, the “Epistaxis related to the labelled drug(s)” value [1] was “(25.9%)”, the “Epistaxis related to the labelled drug(s), patients” value [1] was 7 and the “Fall related to the labelled drug(s)” value [1] was “(0.0%)”. For the same substance, the “Fall related to the labelled drug(s), patients” value [1] was 0, the “Fatigue related to the labelled drug(s)” value [1] was “(66.7%)” and the “Fatigue related to the labelled drug(s), patients” value [1] was 18. For the same substance, the “Hallucination related to the labelled drug(s)” value [1] was “(0.0%)”, the “Hallucination related to the labelled drug(s), patients” value [1] was 0 and the “Headache related to the labelled drug(s)” value [1] was “(22.2%)”. For the same substance, the “Headache related to the labelled drug(s), patients” value [1] was 6, the “Hypertension related to the labelled drug(s)” value [1] was “(40.7%)” and the “Infusion site pain related to the labelled drug(s)” value [1] was “(3.7%)”. The “Infusion site pain related to the labelled drug(s), patients” value [1] was 1, the “Muscular weakness related to the labelled drug(s)” value [1] was “(3.7%)” and the “Muscular weakness related to the labelled drug(s), patients” value [1] was 1. For the same substance, the “Nausea related to the labelled drug(s)” value [1] was “(7.4%)”, the “Platelet count decreased related to the labelled drug(s)” value [1] was “(11.1%)” and the “Platelet count decreased related to the labelled drug(s), patients” value [1] was 3. For the same substance, the “Stomatitis related to the labelled drug(s)” value [1] was “(7.4%)”, the “Upper-airway cough syndrome related to the labelled drug(s)” value [1] was “(18.5%)” and the “Upper-airway cough syndrome related to the labelled drug(s), patients” value [1] was 5. The “Vomiting related to the labelled drug(s)” value [1] was “(14.8%)”, the “mean Cmin” value ([2]; Day 15) was 95 µg/mL and the “Cmax D 1” value ([2]; MRZ 0.7 mg/m^2 cohort) was 193 ± 8 (2) μg/mL. The “Cmax D 15” value ([2]; MRZ 0.7 mg/m^2 cohort) was 402 ± 123 (3) μg/mL, the “Cmin D 15” value ([2]; MRZ 0.7 mg/m^2 cohort) was 81.1 ± 17.4 (2) μg/mL and the “Cmax D 1” value ([2]; MRZ 0.8 mg/m^2 cohort) was 267 ± 13.3 (3) μg/mL. The “Cmax D 15” value ([2]; MRZ 0.8 mg/m^2 cohort) was 380 ± 56.5 (2) μg/mL, the “Cmin D 15” value ([2]; MRZ 0.8 mg/m^2 cohort) was 85.0 ± 9.87 (3) μg/mL and the “mean Cmax” value ([2]; all dose cohorts, Day 1, 10 mg/kg) was 275 µg/mL. For the same substance, the pharmacokinetic parameters ([2]; co-administration with marizomib) was “consistent with published parameters and not affected by co-administration”, the “mean Cmax” value ([2]; second value printed for Day 1) was 379 µg/mL and the “6 mo Overall Survival” value ([3]; Field (CABARET), All Pts) was 61%. For the same substance, the “6 mo Progression Free Survival” value ([3]; Field (CABARET), All Pts) was 18%, the “9 mo Overall Survival” value ([3]; Field (CABARET), All Pts) was 39% and the “9 mo Progression Free Survival” value ([3]; Field (CABARET), All Pts) was 6%. The “12 Mo. Overall Survival” value ([3]; Field (CABARET), All Pts) was 24%, the “6 mo Overall Survival” value [3, 5] was 18% and the “9 mo Overall Survival” value [3, 5] was 30%. For the same substance, the “9 mo Progression Free Survival” value [3, 5] was 0%, the “12 Mo. Overall Survival” value [3, 5] was 10% and the “12 Mo. Progression Free Survival” value [3, 5] was 0%. The “6 mo Overall Survival” value [3, 6] was 58%, the “6 mo Progression Free Survival” value [3, 6] was 38% and the “9 mo Overall Survival” value [3, 6] was 40%. For the same substance, the “9 mo Progression Free Survival” value [3, 6] was 22%, the “12 Mo. Overall Survival” value [3, 6] was 24% and the “12 Mo. Progression Free Survival” value [3, 6] was 10%. For the same substance, the “6 mo Overall Survival” value [3, 7] was 25%, the “6 mo Progression Free Survival” value [3, 7] was 10% and the “9 mo Progression Free Survival” value [3, 7] was 0%. The “12 Mo. Progression Free Survival” value [3, 7] was 0%, the “6 mo Overall Survival” value ([3]; Taal (BELOB), All Pts) was 62% and the “6 mo Progression Free Survival” value ([3]; Taal (BELOB), All Pts) was 16%. For the same substance, the “9 mo Overall Survival” value ([3]; Taal (BELOB), All Pts) was 45%, the “9 mo Progression Free Survival” value ([3]; Taal (BELOB), All Pts) was 8% and the “12 Mo. Overall Survival” value ([3]; Taal (BELOB), All Pts) was 26%. The “6 mo Overall Survival” value ([3]; Taal (BELOB), Methylated) was 83%, the “6 mo Progression Free Survival” value ([3]; Taal (BELOB), Methylated) was 33% and the “9 mo Overall Survival” value ([3]; Taal (BELOB), Methylated) was 67%. The “9 mo Progression Free Survival” value ([3]; Taal (BELOB), Methylated) was 22%, the “12 Mo. Overall Survival” value ([3]; Taal (BELOB), Methylated) was 56% and the “6 mo Overall Survival” value ([3]; Taal (BELOB), Unmethylated) was 50%. For the same substance, the “6 mo Progression Free Survival” value ([3]; Taal (BELOB), Unmethylated) was 8%, the “9 mo Progression Free Survival” value ([3]; Taal (BELOB), Unmethylated) was 0% and the “12 Mo. Overall Survival” value ([3]; Taal (BELOB), Unmethylated) was 8%. The “12 Mo. Progression Free Survival” value ([3]; Taal (BELOB), Unmethylated) was 0%, the “6 mo Progression Free Survival” value ([3]; Wick (EORTC 26101 P2), All Pts) was 14% and the “9 mo Progression Free Survival” value ([3]; Wick (EORTC 26101 P2), All Pts) was 9%. For the same substance, the “12 Mo. Progression Free Survival” value ([3]; Wick (EORTC 26101 P2), All Pts) was 8%, the “6 mo Progression Free Survival” value [3, 8] was 25% and the “9 mo Progression Free Survival” value [3, 8] was 9%. The “12 Mo. Progression Free Survival” value [3, 8] was 9%, the “6 mo Progression Free Survival” value [3, 9] was 10% and the “9 mo Progression Free Survival” value [3, 9] was 10%. For the same substance, the “12 Mo. Progression Free Survival” value [3, 9] was 10%, the “6-month progression-free survival (PFS) rate” value ([3]; recurrent G4 MG, BEV alone) was roughly 43% and the “median overall survival (OS)” value ([3]; recurrent G4 MG, BEV alone) was roughly 9 months. For the same substance, the Cmax [4] was 284 µg/mL.
